Test results reported in US20200268716A1, “LULICONAZOLE AS ANTI-ACANTHAMOEBA AGENT AND METHOD FOR PRODUCING THE SAME” (Pola Pharma Inc., priority 2015, published 2020).
≈ marks a conversion by molar mass, not a printed value. Blank lines part the entries; values can stand above or below the compound they belong to.

How the values were obtained:
[1] = system: Acanthamoeba polyphaga (A. polyphaga); test: Growth inhibition of Acanthamoeba polyphaga by solid luliconazole crystals (1 mg added to culture); type: cell-based; conditions: 1 mg of solid crystals added after 48 hours preculture; 25° C., 72 hours
Method: The anti-Acanthamoeba activities of the crystals in Examples 2 to 6 were examined based on the method in Example 1. In other words, Acanthamoeba polyphaga (A. polyphaga) of which the number of the amoebae was 50,000 with respect to 4.5 mL of ATCC712 medium was dispersed and seeded in 500 μL of medium, and was preliminarily cultured at 25° C. for 48 hours. To the resultant, 1 mg of each of the crystals in Examples 2 to 6 was added to prepare a control and samples. The culture was further continued at 25° C. for 72 hours, and the number of the amoebae in the culture liquid was measured by a Neubauer counting chamber. The control, to which nothing was added, and in which the amoebae were cultured, was used. Growth inhibition rates were calculated from the counted values according to an expression of [(the number of amoebae in control−the number of amoebae in each sample)/the number of amoebae in control]×100.

[2] = system: Acanthamoeba polyphaga (A. polyphaga; clinical isolate); test: Growth inhibition of Acanthamoeba polyphaga by luliconazole in solution (methanol specimen), amoebae counted in a Neubauer counting chamber; type: cell-based; conditions: 25° C., 72 hours
Method: Acanthamoeba polyphaga (A. polyphaga; clinical isolate) was cultured in an ATCC712 medium (hereinafter simply referred to as medium) at 25° C. for 1 week, and the medium was adjusted by adding a medium so that the number of the amoebae was 100,000 amoebae/mL, to make a preculture liquid. A control and samples were prepared by adding 4.3 mL of medium, 200 μL of specimen, and 500 μL of preculture liquid. The amoebae were cultured at 25° C. for 72 hours, and the number of the amoebae was counted by a Neubauer counting chamber.
Luliconazole used in the specimen was obtained as described below. A compound was synthesized according to a method described in Japanese Patent Laid-Open No. 60-218387, an ethyl acetate/normal hexane mixture (5:1) was added, and the resultant was warmed at 60° C. and dissolved under stirring. Crystals were precipitated while stirring the resultant in cooling water at 5° C., were filtered, and dried by sending air at 40° C. for 48 hours to obtain the crystals.
The specimen was prepared using methanol as a solvent so that the final concentration of luliconazole was 0, 5, 10, 20, or 40 μg/mL. The specimen in which the final concentration of luliconazole was 0 μg/mL was used as the control.
Growth inhibition rates were determined based on [(the number of amoebae in control−the number of amoebae in each sample)/the number of amoebae in control]×100. MIC and IC50 were calculated based on the growth inhibition rates by a usual method. MIC was 40 μg/mL, and IC50 was 20 μg/mL.

[3] = calculated from growth inhibition rates

SMILES: N#C/C(=C1/SC[C@@H](c2ccc(Cl)cc2Cl)S1)n1ccnc1 [Crystal in Example 2, luliconazole]
Growth Inhibition Rate (%) [1]: 66.7%

IC50 [2, 3]: 20 µg/mL (≈ 56.5 µM)
MIC [2, 3]: 40 µg/mL (≈ 113 µM)
SMILES: N#C/C(=C1/SC[C@@H](c2ccc(Cl)cc2Cl)S1)n1ccnc1 [luliconazole]
inhibition at 5 µg/mL ([2]; luliconazole final concentration 5 μg/mL, ATCC712 medium, read-out: Inhibition Rate (%)): 20%
inhibition at 10 µg/mL ([2]; luliconazole final concentration 10 μg/mL, ATCC712 medium, read-out: Inhibition Rate (%)): 40%
inhibition at 20 µg/mL ([2]; luliconazole final concentration 20 μg/mL, ATCC712 medium, read-out: Inhibition Rate (%)): 50%
inhibition at 40 µg/mL ([2]; luliconazole final concentration 40 μg/mL, ATCC712 medium, read-out: Inhibition Rate (%)): 95%

SMILES: N#C/C(=C1/SC[C@@H](c2ccc(Cl)cc2Cl)S1)n1ccnc1 [Crystal in Example 3, luliconazole]
Growth Inhibition Rate (%) [1]: 25.9%

SMILES: N#C/C(=C1/SC[C@@H](c2ccc(Cl)cc2Cl)S1)n1ccnc1 [Crystal in Example 4, luliconazole]
Growth Inhibition Rate (%) [1]: 69.6%

SMILES: N#C/C(=C1/SC[C@@H](c2ccc(Cl)cc2Cl)S1)n1ccnc1 [Crystal in Example 5, luliconazole]
Growth Inhibition Rate (%) [1]: 77.0%

SMILES: N#C/C(=C1/SC[C@@H](c2ccc(Cl)cc2Cl)S1)n1ccnc1 [Crystal in Example 6, luliconazole]
Growth Inhibition Rate (%) [1]: 54.8%
